Tests used:
[1] = test system: AMBEL (Ragweed, Common); assay: Postemergence herbicidal evaluation; format: in vivo, Ambrosia artemisifolia; settings: postemergence
Method in brief: (§1)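 Each compound, dispersed in an acetone/water mix (50/50) carrying 0.5% TWEEN 20, is nozzle-sprayed at 40 psi on approximately two-week-old seedlings at about 0.0156–0.500 kg/ha. Plants are assessed 4–5 weeks afterward on a 0–9 scale relative to control; duplicate tests are averaged.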

[2] = test system: CASOB (Sicklepod); assay: Postemergence herbicidal evaluation; format: in vivo, Cassia obtusifolia; settings: postemergence
Method in brief: as §1

[3] = test system: GALAP (Galium); assay: Postemergence herbicidal evaluation; format: in vivo, Galium aparine; settings: postemergence
Method in brief: as §1

[4] = test system: IPOHE (Morningglory, Ivyleaf); assay: Postemergence herbicidal evaluation; format: in vivo, Ipomoea hederacea; settings: postemergence
Method in brief: as §1

[5] = test system: ABUTH (Velvetleaf); assay: Preemergence herbicidal evaluation; format: in vivo, Abutilon theophrasti; settings: rated 4-5 weeks after treatment, rating scale 0-9
Method in brief: (§2)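 Rating at 4–5 wk post-spray on a 0–9 visual scale vs control. Application: aqueous acetone, ~0.0156–0.500 kg/ha, to soil surface after seeding, preemergence.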

[6] = test system: CASOB (Sicklepod); assay: Preemergence herbicidal evaluation; format: in vivo, Cassia obtusifolia; settings: rated 4-5 weeks after treatment, rating scale 0-9
Method in brief: as §2

[7] = test system: IPOHE (Morningglory, Ivyleaf); assay: Preemergence herbicidal evaluation; format: in vivo, Ipomoea hederacea; settings: rated 4-5 weeks after treatment, rating scale 0-9
Method in brief: as §2

[8] = test system: ECHCG (Barnyardgrass); assay: Preemergence herbicidal evaluation; format: in vivo, Echinochloa crus-galli; settings: rated 4-5 weeks after treatment, rating scale 0-9
Method in brief: as §2

[9] = test system: GLXMAW (Soybean, Williams); assay: Preemergence herbicidal evaluation; format: in vivo, Glycine max, (L.) Merr. cv Williams; settings: rated 4-5 weeks after treatment, rating scale 0-9
Method in brief: as §2

[10] = test system: TRZAWR (Wheat, Winter, cv Riband); assay: Preemergence herbicidal evaluation; format: in vivo, Triticum aestivum; settings: rated 4-5 weeks after treatment, rating scale 0-9
Method in brief: as §2

[11] = test system: ZEAMX (Corn, Field); assay: Preemergence herbicidal evaluation; format: in vivo, Zea mays; settings: rated 4-5 weeks after treatment, rating scale 0-9
Method in brief: as §2

[12] = test system: MOOVA (Monochoria); assay: Preemergence weed control under flooded paddy conditions; format: in vivo, Monochoria vaginalis; settings: rated 3-4 weeks after treatment
Method in brief: (§3)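 Greenhouse paddy assay. Acetone/water (50/50 v/v) solutions dosed into flood water, equivalent to about 0.0313 to 0.500 kg/ha active ingredient, over seeds planted 0.5 cm deep in silt loam. Score: 0-9 visual, based on stand, vigor, malformation, size and chlorosis, 3 to 4 weeks after treatment.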

[13] = test system: SAGPY (Arrowhead (Pygmaea)); assay: as above; format: in vivo, Sagittaria pygmaea; settings: rated 3-4 weeks after treatment
Method in brief: as §3

Cn1c(C(F)(F)F)cc(=O)n(-c2cc(N=C3SCC(=O)N3Cc3ccc(C(F)(F)F)cc3)c(Cl)cc2F)c1=O [Compound 141, 3-{4-Chloro-2-fluoro-5-{{3-[p-(trifluoromethyl)benzyl]-4-oxo-2-thiazolidinylidene}-amino}phenyl}-1-methyl-6-(trifluoromethyl)-2,4 (1H, 3H)-pyrimidinedione]
4.0: Preemergence herbicidal rating ABUTH ([5]; rate 0.1250 kg/ha) | herbicidal effect rating, SAGPY ([13]; 0.0313 kg/ha)
6.0: herbicidal effect rating, SAGPY ([13]; 0.2500 kg/ha)
3.0: Preemergence herbicidal rating CASOB ([6]; rate 0.2500 kg/ha) | Preemergence herbicidal rating IPOHE ([7]; rate 0.2500 kg/ha) | Preemergence herbicidal rating GLXMAW ([9]; rate 0.2500 kg/ha)
5.0: herbicidal effect rating, SAGPY ([13]; 0.0625 kg/ha) | herbicidal effect rating, SAGPY ([13]; 0.1250 kg/ha)
9.0: Herbicidal rating AMBEL ([1]; rate 0.0625 kg/ha) | Herbicidal rating IPOHE ([4]; rate 0.0156 kg/ha) | Herbicidal rating IPOHE ([4]; rate 0.0313 kg/ha) | Herbicidal rating IPOHE ([4]; rate 0.0625 kg/ha) | Preemergence herbicidal rating ABUTH ([5]; rate 0.2500 kg/ha) | herbicidal effect rating, MOOVA ([12]; 0.2500 kg/ha)
2.0: Herbicidal rating GALAP ([3]; rate 0.0313 kg/ha) | Herbicidal rating GALAP ([3]; rate 0.0625 kg/ha) | Preemergence herbicidal rating ECHCG ([8]; rate 0.2500 kg/ha) | Preemergence herbicidal rating ZEAMX ([11]; rate 0.2500 kg/ha)
0.0: Herbicidal rating CASOB ([2]; rate 0.0156 kg/ha) | Herbicidal rating CASOB ([2]; rate 0.0313 kg/ha) | Herbicidal rating CASOB ([2]; rate 0.0625 kg/ha) | Herbicidal rating GALAP ([3]; rate 0.0156 kg/ha) | Preemergence herbicidal rating ABUTH ([5]; rate 0.0156 kg/ha) | Preemergence herbicidal rating ABUTH ([5]; rate 0.0313 kg/ha) | Preemergence herbicidal rating ABUTH ([5]; rate 0.0625 kg/ha) | Preemergence herbicidal rating CASOB ([6]; rate 0.0156 kg/ha) | Preemergence herbicidal rating CASOB ([6]; rate 0.0313 kg/ha) | Preemergence herbicidal rating CASOB ([6]; rate 0.0625 kg/ha) | Preemergence herbicidal rating CASOB ([6]; rate 0.1250 kg/ha) | Preemergence herbicidal rating IPOHE ([7]; rate 0.0156 kg/ha) | Preemergence herbicidal rating IPOHE ([7]; rate 0.0313 kg/ha) | Preemergence herbicidal rating IPOHE ([7]; rate 0.0625 kg/ha) | Preemergence herbicidal rating IPOHE ([7]; rate 0.1250 kg/ha) | Preemergence herbicidal rating ECHCG ([8]; rate 0.0156 kg/ha) | Preemergence herbicidal rating ECHCG ([8]; rate 0.0313 kg/ha) | Preemergence herbicidal rating ECHCG ([8]; rate 0.0625 kg/ha) | Preemergence herbicidal rating ECHCG ([8]; rate 0.1250 kg/ha) | Preemergence herbicidal rating GLXMAW ([9]; rate 0.0156 kg/ha) | Preemergence herbicidal rating GLXMAW ([9]; rate 0.0313 kg/ha) | Preemergence herbicidal rating GLXMAW ([9]; rate 0.0625 kg/ha) | Preemergence herbicidal rating GLXMAW ([9]; rate 0.1250 kg/ha) | Preemergence herbicidal rating TRZAWR ([10]; rate 0.0156 kg/ha) | Preemergence herbicidal rating TRZAWR ([10]; rate 0.0313 kg/ha) | Preemergence herbicidal rating TRZAWR ([10]; rate 0.0625 kg/ha) | Preemergence herbicidal rating TRZAWR ([10]; rate 0.1250 kg/ha) | Preemergence herbicidal rating TRZAWR ([10]; rate 0.2500 kg/ha) | Preemergence herbicidal rating ZEAMX ([11]; rate 0.0156 kg/ha) | Preemergence herbicidal rating ZEAMX ([11]; rate 0.0313 kg/ha) | Preemergence herbicidal rating ZEAMX ([11]; rate 0.0625 kg/ha) | Preemergence herbicidal rating ZEAMX ([11]; rate 0.1250 kg/ha)
8.0: herbicidal effect rating, MOOVA ([12]; 0.0625 kg/ha) | herbicidal effect rating, MOOVA ([12]; 0.1250 kg/ha)
7.0: Herbicidal rating AMBEL ([1]; rate 0.0156 kg/ha) | Herbicidal rating AMBEL ([1]; rate 0.0313 kg/ha) | herbicidal effect rating, MOOVA ([12]; 0.0313 kg/ha)

COc1cc(CN2C(=O)CSC2=Nc2cc(-n3c(=O)cc(C(F)(F)F)n(C)c3=O)c(F)cc2Cl)cc(OC)c1OC [Compound 140, 3-{4-Chloro-2-fluoro-5-{[3-(3,4,5-trimethoxybenzyl)-4-oxo-2-thiazolidinylidene]amino}phenyl}-1-methyl-6-(trifluoromethyl)-2,4(1H,3H)-pyrimidinedione]
0.0: Herbicidal rating CASOB ([2]; rate 0.0156 kg/ha) | Herbicidal rating CASOB ([2]; rate 0.0313 kg/ha) | Herbicidal rating CASOB ([2]; rate 0.0625 kg/ha) | Herbicidal rating GALAP ([3]; rate 0.0156 kg/ha) | Herbicidal rating GALAP ([3]; rate 0.0313 kg/ha) | Preemergence herbicidal rating ABUTH ([5]; rate 0.0625 kg/ha) | Preemergence herbicidal rating CASOB ([6]; rate 0.0625 kg/ha) | Preemergence herbicidal rating CASOB ([6]; rate 0.1250 kg/ha) | Preemergence herbicidal rating CASOB ([6]; rate 0.2500 kg/ha) | Preemergence herbicidal rating IPOHE ([7]; rate 0.0625 kg/ha) | Preemergence herbicidal rating ECHCG ([8]; rate 0.0625 kg/ha) | Preemergence herbicidal rating ECHCG ([8]; rate 0.1250 kg/ha) | Preemergence herbicidal rating ECHCG ([8]; rate 0.2500 kg/ha) | Preemergence herbicidal rating GLXMAW ([9]; rate 0.0625 kg/ha) | Preemergence herbicidal rating GLXMAW ([9]; rate 0.1250 kg/ha) | Preemergence herbicidal rating GLXMAW ([9]; rate 0.2500 kg/ha) | Preemergence herbicidal rating TRZAWR ([10]; rate 0.0625 kg/ha) | Preemergence herbicidal rating TRZAWR ([10]; rate 0.1250 kg/ha) | Preemergence herbicidal rating TRZAWR ([10]; rate 0.2500 kg/ha) | Preemergence herbicidal rating ZEAMX ([11]; rate 0.0625 kg/ha) | Preemergence herbicidal rating ZEAMX ([11]; rate 0.1250 kg/ha) | Preemergence herbicidal rating ZEAMX ([11]; rate 0.2500 kg/ha)
4.0: Herbicidal rating AMBEL ([1]; rate 0.0625 kg/ha) | herbicidal effect rating, MOOVA ([12]; 0.0313 kg/ha) | herbicidal effect rating, SAGPY ([13]; 0.1250 kg/ha) | herbicidal effect rating, SAGPY ([13]; 0.2500 kg/ha)
9.0: Herbicidal rating IPOHE ([4]; rate 0.0156 kg/ha) | Herbicidal rating IPOHE ([4]; rate 0.0313 kg/ha) | Herbicidal rating IPOHE ([4]; rate 0.0625 kg/ha) | herbicidal effect rating, MOOVA ([12]; 0.1250 kg/ha) | herbicidal effect rating, MOOVA ([12]; 0.2500 kg/ha)
7.0: Preemergence herbicidal rating ABUTH ([5]; rate 0.2500 kg/ha) | herbicidal effect rating, MOOVA ([12]; 0.0625 kg/ha)
2.0: Herbicidal rating AMBEL ([1]; rate 0.0156 kg/ha) | Herbicidal rating AMBEL ([1]; rate 0.0313 kg/ha) | Herbicidal rating GALAP ([3]; rate 0.0625 kg/ha) | herbicidal effect rating, SAGPY ([13]; 0.0313 kg/ha)
3.0: Preemergence herbicidal rating ABUTH ([5]; rate 0.1250 kg/ha) | Preemergence herbicidal rating IPOHE ([7]; rate 0.1250 kg/ha) | Preemergence herbicidal rating IPOHE ([7]; rate 0.2500 kg/ha) | herbicidal effect rating, SAGPY ([13]; 0.0625 kg/ha)

Source: patent US20020137929A1, “1 - (3-heterocyclylphenyl) isothiourea, -isourea, -guanidine and -amidine herbicidal agents” (Intellectual Property Department, BASF Aktiengesellschaft, priority 1998, published 2002)
